Assay results published in US4833156A, “Treating amnesia with a pyrrolidone derivative” (Kirin Beer Kabushiki Kaisha, priority 1987, dated 1989).

What was measured:
[1] = test system: scopolamine induced amnesia in rats; experiment: Rat delayed-matching test (scopolamine-induced amnesia); type: in vivo, rat (SD, male, 150 to 300 g); conditions: for remission of scopolamine induced amnesia: oral, 20 min before test, (-)-scopolamine hydrochloride 0.06 mg/kg s.c., delay times 0.1, 4, 16, 32 s, FIG. 3 and FIG. 4
Excerpt: An apparatus equipped with two lever switches on the respective sides of the front face of the inside of an operant experimental box (25×31×33 cm), red lamps just above respective levers and a white lamp at a further upper position was used for the experiment. A rat bred under restricted feeding (SD, male, 150 to 300 g) was placed in the apparatus. Either one of the red lamps arranged on the right and left sides was lit for 5 seconds, and, at a specific time (delayed time) after it was turned off, the white lamp at the center was lit. The system of the apparatus was so set that if the lever which was at the side of the red lamp having lit was pushed, a feed pellet (ca. 50 mg) was given as a correct choice, and if another lever was pushed no pellet was given as an incorrect choice. After the training had been conducted to ensure that, in the test of delay time being 0.1 sec, the correct choice rate was maintained at the level of 80% or more for three consecutive days, the test was conducted. In the test, delay times were set at 0.1, 4, 16 and 32 seconds, and, at each of the delay times, 6 runs were conducted at random (24 runs in total, 1 run/minute). […] N-(4'-chlorobenzenesulfonyl)-2-pyrrolidone and aniracetam were administered orally in the form of suspensions in 0.3% Tween 80 at 20 minutes before test.

[2] = test system: proline specific endopeptidase; experiment: Inhibition of proline specific endopeptidase activity (residual peptidase activity); type: biochemical; conditions: inhibitor concentration not given
Procedure: The inhibitory effects of the compounds represented by the formula (I) were determined by measuring the residual peptidase activity. The experimental procedure was agreed with the method by Tadashi Yoshimoto and Daisuke Tsuru: Tanpakushitsu, Kakusan and Koso, 29 (2), 127 (1984).

[3] = test system: ddY male mice; experiment: Acute toxicity, oral administration to mice; type: in vivo, mouse (ddY; conditions: 7 week old, result in words
Excerpt: (§1) Acute toxicity was evaluted by oral administration of the compounds to ddY male mice (7 week old).

[4] = Acute toxicity, oral administration to mice; type: in vivo, mouse (ddY; conditions: mouse, in vivo, ddY male mice, 7 week old
Excerpt: as §1

[5] = test system: cycloheximide (CXM)-induced amnesia in mice; experiment: Mouse step-down test (cycloheximide-induced amnesia); type: in vivo, mouse (ddY, male, 5 to 6 week old); conditions: conclusion for the mouse step-down test
Procedure: The test was carried out in accordance with the method described by Nabeshima et al.: Psychopharmacology, (1986) 89, 334-337. That is, a wooden platform (4×4×4 cm) was placed in the center on a floor of a stainless steel grid (30×30 cm), and the whole apparatus was surrounded with clear acrylic resin plates. In acquisition test, a mouse (ddY, male, 5 to 6 week old) was placed on the platform, and electric stimulus was applied for 20 seconds immediately after the mouse stepped down on the grid. Then the mouse was taken out of the apparatus and cycloheximide hydrochloride (30 mg/kg) was administered subcutaneously in order to induce amnesia. In the retention test, the mouse was again placed on the platform, and the time before the mouse stepped down on the grid was measured as the step-down latency. N-(4'-chlorobenzenesulfonyl)-2-pyrrolidone and aniracetam were individually suspended in 0.3% Tween 80 and administered orally at 20 minutes before acquisition test.

| Residual Activity [2] | Compound | remission of scopolamine induced amnesia [1] | anti-amnestic effect compared with aniracetam ([1]; conclusion for the rat delayed-matching test) | safety [3] | LD50 [4] [mg/kg] | anti-amnestic effect compared with aniracetam [5] |
| --- | --- | --- | --- | --- | --- | --- |
| 89.5 | COc1ccc(C(=O)N2CCCC2=O)cc1 [Aniracetam, aniracetam, reference compound] | did not remitted at all scopolamine induced amnesia |  |  |  |  |
| 47.4 | Cc1ccc(S(=O)(=O)N2CCCC2=O)cc1 [Synthetic Example 1,2, N-(4'-toluenesulfonyl)-2-pyrrolidone] |  |  |  |  |  |
| 51.3 | O=C1CCCN1S(=O)(=O)c1ccccc1 [Synthetic Example 5,6, N-benzenesulfonyl-2-pyrrolidone] |  |  |  |  |  |

| Compound | Residual Activity [2] | remission of scopolamine induced amnesia [1] | anti-amnestic effect compared with aniracetam ([1]; conclusion for the rat delayed-matching test) | safety [3] | LD50 [4] [mg/kg] | anti-amnestic effect compared with aniracetam [5] |
| --- | --- | --- | --- | --- | --- | --- |
| O=C1CCCN1S(=O)(=O)c1ccc(Cl)cc1 [Synthetic Example 3,4, N-(4'-chlorobenzenesulfonyl)-2-pyrrolidone] | 51.3 | showed remission of scopolamine induced amnesia at several dosages and delay times | exhibited an anti-amnestic effect and was more effective than aniracetam | High level of safety | ≥ 2000 | exhibited an anti-amnestic effect and was more effective than aniracetam |
